From US20240368135A1 (VERTEX PHARMACEUTICALS INCORPORATED, priority 2021, published 2024)
Like-named read-outs stand apart in the source and are kept apart here.

Molecular target: human NaV 1.8 (Homo sapiens, UniProt Q9Y5Y9)
Assay: E-VIPR assay detecting and measuring NaV inhibition properties
Format: cell-based
Conditions: HEK cells expressing truncated human NaV 1.8
Text: Sodium ion channels are voltage-dependent proteins that can be activated by inducing membrane voltage changes by applying electric fields. The electrical stimulation instrument and methods of use, referred to as E-VIPR, are described in International Publication No. WO 2002/008748 A3 and C.-J. Huang et al. Characterization of voltage-gated sodium channel blockers by electrical stimulation and fluorescence detection of membrane potential, 24 Nature Biotech. 439-46 (2006), both of which are incorporated by reference in their entirety. The instrument comprises a microtiter plate handler, an optical system for exciting the coumarin dye while simultaneously recording the coumarin and oxonol emissions, a waveform generator, a current- or voltage-controlled amplifier, and parallel electrode pairs that are inserted into assay plate wells. Under integrated computer control, this instrument passes user-programmed electrical stimulus protocols to cells within the wells of the microtiter plate.
16-20 hours prior to running the assay on E-VIPR, HEK cells expressing a truncated form of human NaV 1.8 with full channel activity were seeded into microtiter 384-well plates, pre-coated with matrigel, at a density of 25,000 cells per well. 2.5-5% KIR2.1 Bacmam virus was added to the final cell suspension before seeding into cell plates. HEK cells were grown in Dulbecco's Modified Eagle's Medium (DMEM) supplemented with 10% FBS (Fetal Bovine Serum, qualified; Sigma #F4135), 1% NEAA (Non-Essential Amino Acids, Gibco #11140), 1% HEPES (Gibco #15630), 1% Pen-Strep (Penicillin-Streptomycin; Gibco #15140) and 5 μg/ml Blasticidin (Gibco #R210-01). Cells were expanded in vented cap cell culture flasks, with 90-95% humidity and 5% CO2.
Human Serum (HS, Millipore #S1P1-01KL, or Sigma SLBR5469V and SLBR5470V as a 50%/50% mixture, for 25% assay final concentration) • Bath 1 Buffer: • Sodium Chloride 160 mM (9.35 g/L), Potassium Chloride, 4.5 mM (0.335 g/L), Glucose 10 mM (1.8 g/L), Magnesium Chloride (Anhydrous) 1 mM (0.095 g/L), Calcium Chloride 2 mM (0.222 g/L), HEPES 10 mM (2.38 g/L) in water. • Na/TMA C1 Bath 1 Buffer: • Sodium Chloride 96 mM (5.61 g/L), Potassium Chloride 4.5 mM (0.335 g/L), Tetramethylammonium (TMA)-Cl 64 mM (7.01 g/L), Glucose 10 mM (1.8 g/L), Magnesium Chloride (Anhydrous) 1 mM (0.095 g/L), Calcium Chloride 2 mM (0.222 g/L) HEPES 10 mM (2.38 g/L) in water. • Hexyl Dye Solution (2× concentration): • Bath 1 Buffer containing 0.5% P-cyclodextrin (made fresh prior to each use, Sigma #C4767), 8 μM CC2-DMPE and 2 μM DiSBAC6(3). The solution was made by adding 10% Pluronic F127 stock equal to combined volumes of CC2-DMPE and DiSBAC6(3). The order of preparation was first mix Pluronic and CC2-DMPE, then add DiSBAC6(3), then while vortexing add Bath 1/p-Cyclodextrin.
Compound Loading Buffer (2× concentration): Na/TMA C1 Bath1 Buffer containing HS (omitted in experiments run in the absence of human serum (HS)) 50%, VABSC-1 1 mM, BSA 0.2 mg/ml (in Bath-1), KCl 9 mM, DMSO 0.625%.
1) To reach the final concentration in each well, 375 nL of each compound was pre-spotted (in neat DMSO) into polypropylene compound plates at 240× desired final concentration from an intermediate stock concentration of 0.075 mM, in an 11 point dose response, 3-fold dilution, resulting in a top dose of 300 nM final concentration in the cell plate. Vehicle control (neat DMSO), and positive control (an established NaV1.8 inhibitor, 25 μM final in assay in DMSO) were added manually to the outermost columns of each plate respectively. The compound plate was backfilled with 45 μL per well of Compound Loading Buffer resulting in a 240 fold dilution of compound following a 1:1 transfer of compound into the cell plate (see Step 6). Final DMSO concentration for all wells in the assay was 0.625% (0.75% DMSO was supplemented to the Compound Loading Buffer for a final DMSO concentration of 0.625%). […]

[1] = no human serum, read-out: IC50 in the E-VIPR Assay
[2] = in the presence of human serum (compound numbers followed by *), read-out: IC50 in the E-VIPR Assay, performed in the presence of human serum

human NaV 1.8, sequence (Q9Y5Y9 126-399 limits assumed): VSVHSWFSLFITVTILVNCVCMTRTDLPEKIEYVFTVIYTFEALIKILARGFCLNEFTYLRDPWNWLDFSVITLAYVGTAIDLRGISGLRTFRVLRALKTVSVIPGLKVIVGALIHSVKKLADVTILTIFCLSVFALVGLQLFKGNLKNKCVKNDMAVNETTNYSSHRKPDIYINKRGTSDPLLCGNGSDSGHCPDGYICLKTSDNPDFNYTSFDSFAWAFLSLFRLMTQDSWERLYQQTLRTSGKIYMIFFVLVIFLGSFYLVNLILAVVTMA
human NaV 1.8, sequence (Q9Y5Y9 660-890 limits assumed): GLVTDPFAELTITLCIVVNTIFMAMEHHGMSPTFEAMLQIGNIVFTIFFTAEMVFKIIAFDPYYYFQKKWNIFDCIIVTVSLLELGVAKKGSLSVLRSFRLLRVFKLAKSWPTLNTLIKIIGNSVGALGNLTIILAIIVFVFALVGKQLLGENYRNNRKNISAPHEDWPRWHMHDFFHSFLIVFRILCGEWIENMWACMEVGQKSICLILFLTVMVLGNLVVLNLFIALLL
human NaV 1.8, sequence (Q9Y5Y9 1148-1722 limits assumed): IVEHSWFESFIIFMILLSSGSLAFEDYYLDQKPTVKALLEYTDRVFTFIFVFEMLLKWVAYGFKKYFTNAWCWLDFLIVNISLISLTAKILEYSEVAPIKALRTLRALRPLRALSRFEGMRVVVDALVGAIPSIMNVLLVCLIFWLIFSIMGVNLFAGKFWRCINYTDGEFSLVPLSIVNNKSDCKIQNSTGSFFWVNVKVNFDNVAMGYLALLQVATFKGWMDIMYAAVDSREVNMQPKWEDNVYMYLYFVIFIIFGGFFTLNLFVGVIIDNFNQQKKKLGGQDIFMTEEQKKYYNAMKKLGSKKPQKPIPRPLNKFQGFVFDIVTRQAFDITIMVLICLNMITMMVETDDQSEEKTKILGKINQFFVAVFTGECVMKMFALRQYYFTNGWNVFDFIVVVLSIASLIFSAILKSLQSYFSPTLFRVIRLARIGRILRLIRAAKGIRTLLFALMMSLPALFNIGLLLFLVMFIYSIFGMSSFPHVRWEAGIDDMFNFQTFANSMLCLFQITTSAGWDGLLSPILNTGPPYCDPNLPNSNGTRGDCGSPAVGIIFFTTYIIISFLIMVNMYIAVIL

Row | Structure (SMILES) | IC50 [1] [nM] | IC50 [2] [nM]
1 | COc1c([C@@H]2[C@@H](C(=O)Nc3ccnc([S+](C)[O-])c3)O[C@](C)(C(F)(F)F)[C@@H]2C)ccc(F)c1F (single isomer, unassigned) [Compound 6] | – | ≥ 1000
2 | COc1c([C@H]2[C@H](C(=O)Nc3ccnc([S+](C)[O-])c3)O[C@@](C)(C(F)(F)F)[C@H]2C)ccc(F)c1F (single isomer, unassigned) [Compound 8] | < 10 | –
3 | COc1c([C@H]2[C@H](C(=O)Nc3ccnc([S+](C)[O-])c3)O[C@@](C)(C(F)(F)F)[C@H]2C)ccc(F)c1F (single isomer, unassigned) [Compound 9] | – | < 10
4 | CCOc1c([C@@H]2[C@@H](C(=O)Nc3ccnc(S(C)(=N)=O)c3)O[C@](C)(C(F)(F)F)[C@@H]2C)ccc(F)c1F (single isomer, unassigned) [Compound 10] | 100 to 1000 | –
5 | CCOc1c([C@@H]2[C@@H](C(=O)Nc3ccnc(S(C)(=N)=O)c3)O[C@](C)(C(F)(F)F)[C@@H]2C)ccc(F)c1F (single isomer, unassigned) [Compound 11] | ≥ 1000 | –
6 | CNCc1cc(NC(=O)[C@@H]2O[C@@](C)(C(F)(F)F)[C@@H](C)[C@H]2c2ccc(F)c(F)c2OC)c(F)cn1 (single isomer, unassigned) [Compound 13, 3-(3,4-difluoro-2-methoxy-phenyl)-N-[5-fluoro-2-(methylaminomethyl)-4-pyridyl]-4,5-dimethyl-5-(trifluoromethyl)tetrahydrofuran-2-carboxamide] | – | 10 to 100
7 | COc1c([C@H]2[C@H](C(=O)Nc3ccnc(CO)c3)O[C@@](C)(C(F)(F)F)[C@H]2C)ccc(F)c1F (single isomer, unassigned) [Compound 14] | < 10 | –
8 | COc1c([C@H]2[C@H](C(=O)Nc3cnc4c(c3)CCC4O)O[C@@](C)(C(F)(F)F)[C@H]2C)ccc(F)c1F (single isomer, unassigned) [Compound 17] | 10 to 100 | –
9 | COc1c([C@H]2[C@H](C(=O)Nc3cc(C(O)CF)ncc3F)O[C@@](C)(C(F)(F)F)[C@H]2C)ccc(F)c1F (single isomer, unassigned) [Compound 24] | < 10 | –

Second part, the molecule after the results:

Row | IC50 [1] [nM] | IC50 [2] [nM] | Structure (SMILES)
10 | 100 to 1000 | – | COc1c([C@@H]2[C@H](C)[C@H](C)O[C@H]2C(=O)Nc2ccnc(C(O)CO)c2)ccc(F)c1F (relative stereo) [Compound 718, rel-(2R,3S,4S,5S)-3-(3,4-difluoro-2-methoxyphenyl)-N-(2-(1,2-dihydroxyethyl)pyridin-4-yl)-4,5-dimethyltetrahydrofuran-2-carboxamide]
11 | – | ≥ 1000 | COc1c([C@H]2[C@@H](C)[C@@H](C)O[C@@H]2C(=O)Nc2ccnc(C(O)CO)c2)ccc(F)c1F (relative stereo) [Compound 719, rel-(2S,3R,4R,5R)-3-(3,4-difluoro-2-methoxyphenyl)-N-(2-(1,2-dihydroxyethyl)pyridin-4-yl)-4,5-dimethyltetrahydrofuran-2-carboxamide]
12 | – | 100 to 1000 | COc1c([C@H]2[C@H](C(=O)Nc3ccnc(C(O)CO)c3)OC(C)(C)[C@H]2C)ccc(F)c1F (relative stereo) [Compound 721, rel-(2R,3S,4S)-3-(3,4-difluoro-2-methoxyphenyl)-N-(2-(1,2-dihydroxyethyl)pyridin-4-yl)-4,5,5-trimethyltetrahydrofuran-2-carboxamide]
13 | – | ≥ 1000 | COc1c(C2C(C(=O)Nc3ccn(C)c(=O)c3)OC(C)(C(F)(F)F)C2C)ccc(F)c1F (single isomer, unassigned) [Compound 27, 3-(3,4-difluoro-2-methoxy-phenyl)-4,5-dimethyl-N-(1-methyl-2-oxo-4-pyridyl)-5-(trifluoromethyl)tetrahydrofuran-2-carboxamide]
14 | < 10 | – | COc1c(C2C(C(=O)Nc3ccn(C)c(=O)c3)OC(C)(C(F)(F)F)C2C)ccc(F)c1F (single isomer, unassigned) [Compound 28, 3-(3,4-difluoro-2-methoxy-phenyl)-4,5-dimethyl-N-(1-methyl-2-oxo-4-pyridyl)-5-(trifluoromethyl)tetrahydrofuran-2-carboxamide]
